Experimental data reported in patent US20060276440A1, “Treatment of inflammatory disorders” (priority 2005, published 2006).
Entries after “also recorded” stand apart in the source; their conditions may differ.

Assays:
Type in all cases: cell-based, human
[1] = test system: OSM signaling; test: […] 4A1 cell line (A549) OSM-stimulated luciferase reporter assay; conditions: Homo sapiens, A549; 4A1 cell line; primary screen (Table 1); read-out: IC50, inhibition of OSM-stimulated (luciferase) reporter activity
Experimental: Cell line 4A1 was established in A549 cells (a human lung cancer cell line) using BV32, a vector that carries both the luciferase and GFP reporters. Assay development was performed to optimize the conditions of the OSM-response in the 4A1 […]® line.
Reporter activities of Sentinel® clones were measured using the Steady-Glo® Luciferase assay system (Promega, Madison, Wis.), according to the manufacturer's instructions, and were normalized to cell numbers based on nucleic acid quantification (CyQuant® cell proliferations assay, Molecular Probes/Invitrogen, Carlsbad, Calif.). In order to identify potential anti-inflammatory compounds, the OSM-responding Sentinel® clone 4A1 was used for a library screen of approximately 1800 compounds.

[2] = test system: MMP-13; test: IL-1/OSM-stimulated pro-MMP-13 production in SW-1353 cells (ELISA); conditions: Homo sapiens, SW1353; SW-1353; IL-1/OSM-stimulated; secondary screen (Example 2); read-out: IC50, inhibition of MMP-13 (pro-MMP-13) production
Excerpt: To test the compounds identified in the preliminary reporter (luciferase) activity […]® line 4A1 screen for inhibition of OSM signaling in a more physiologically relevant environment, a human cell line involved in an inflammatory disease was adapted. The human cartilage cell line SW-1353 was selected.
In the human cartilage cell line SW-1353, while IL-1 is believed to activate expression of collagenases to a small degree and OSM is believed to have no effect on collagenase expression, a combination of IL-1 and OSM is believed to lead to a synergistic activation of collagenases to much higher levels (S. Cowell et al., Biochem J 331 (Pt 2), 453 (Apr. 15, 1998). Regulation of MMP-13 in SW-1353 cells is, therefore, believed to provide a biomarker which can be used to monitor IL-1/OSM-mediated signal transduction events in secondary assays.
(§1) The same supernatants of culture media used in the primary screen were assayed for IL-1/OSM-stimulated pro-MMP-13 production and MMP-2 production by enzyme-linked immunosorbent assay (ELISA).
(§2) For matrix metalloproteinase (MMP) measures, SW1353 cells were grown to confluence in 24 well plates, washed in DMEM (with Ham's F12) and placed in 500 ul of serum free DMEM/F-12 with 0.2% lactalbumin hydrosylate with and without OsM/IL-1. After 24 hrs, supernatants were collected and the amounts of proMMP13, totalMMP2, and proMMP1 were measured using Quantikine® ELISA kit for human MMPs (R & D systems, Minneapolis, Minn.). All MMP measures were normalized to viable cell numbers based on a tetrazolium (MTS) colorimetric measure (Promega, Madison, Wis.).

[3] = test system: MMP-2; test: MMP-2 production in SW1353 cells (ELISA, control); conditions: SW-1353; FIG. 5
Experimental: MMP-2 production can be used as control for the potential side-effects of compounds. This is because MMP-2 levels are not believed to change in response to IL-1/OSM.
as §1, §2
(§3) Multiple control assays were performed to investigate the selectivity of CA4 action. Matrix metalloproteinase-2 (MMP-2) production in SW1353 cells was tested. Mutation of MMP-2 causes a multicentric osteolysis and arthritis syndrome (Martignetti et al., Nat Genet 28, 261-265 (2001) the entire contents of which are incorporated herein by reference), and theoretically its expression should not be affected in treating RA. CA4 at approximately 110 nM had no effect on production of MMP-2 (FIG. 12E). An A549 Sentinel line that responded to TGF-β was then tested.

[4] = test system: TGF-β; test: A549 Sentinel line TGF-β-stimulated reporter activity; conditions: inhibitor of TGF-β receptor, control
Experimental: as §3

IC50 [1]	IC50 [2]	Structure (SMILES)	inhibitory effect on MMP-13 expression compared to MMP-2 expression [3]	effect on TGF-β-induced reporter activity [4]
12 nM	6 nM	CC(C)C1=CC2=CCC3[C@](C)(C(=O)O)CCC[C@@]3(C)[C@@H]2CC1 (stereo in doubt) [Abietic acid (2), abietic acid]	greater inhibitory effects on MMP-13 expression compared to MMP-2 expression; also recorded: preferentially inhibit MMP-13 expression compared to MMP-2 expression	–
3300 nM	600 nM	C=C(C)[C@H]1CC[C@@]2(C(=O)O)CC[C@@]3(C)[C@@H](CC[C@H]4[C@]5(C)CC[C@@H](O)C(C)(C)[C@H]5CC[C@@]43C)[C@H]12 (stereo in doubt) [Betulinic acid (9), betulinic acid]	greater inhibitory effects on MMP-13 expression compared to MMP-2 expression; also recorded: preferentially inhibit MMP-13 expression compared to MMP-2 expression	–
2200 nM	400 nM	CCc1oc2ccccc2c1C(=O)c1cc(Br)c(O)c(Br)c1 [Benzobromarone (8), (3,5-dibromo-4-hydroxyphenyl)(2-ethylbenzofuran-3-yl)methanone]	greater inhibitory effects on MMP-13 expression compared to MMP-2 expression; also recorded: preferentially inhibit MMP-13 expression compared to MMP-2 expression	–
–	–	NC(=O)c1ccc(-c2nc(-c3ccc4c(c3)OCO4)c(-c3ccccn3)[nH]2)cc1 [SB431542, reference compound]	–	able to inhibit
